The values that follow come from ChEMBL document CHEMBL1138951 (J Med Chem, 2006).

What all share (format): functional, organism-based
For test [1], the system named is Plasmodium falciparum. Put plainly: Antimalarial activity against Plasmodium falciparum W2.
The subject of test [2] is Plasmodium falciparum. Nature of the test: Antimalarial activity against Plasmodium falciparum HB3.
The subject of test [3] is Plasmodium falciparum. Put plainly: Antimalarial activity against Plasmodium falciparum Dd2.

Take `CCN(CC)CCCC(C)Nc1ccnc2cc(Cl)ccc12` (stereo not drawn) [CHLOROQUINE]: the results for the IC90 with Plasmodium falciparum [1], in the test with Plasmodium falciparum [2] and with Plasmodium falciparum [3] were 802 nM, 45.7 nM and 167 nM, respectively.

The term IC90 denotes the concentration needed for an effect of 90%.
